Paper PMC7320011, “Rationally designed ruthenium complexes for 1- and 2-photon photodynamic therapy” (Nature Communications, 2020)
Where “and” joins values, the source holds several entries; their conditions need not be identical. Equal entries are not always repeated. Where two headings read alike, the source gives them in different places.

Columns and labels:
[1] = Photostability (absorption spectra upon irradiation); assay type: physicochemical; settings: 450 nm, 0 to 10 min (13.2 J cm^−2), air-saturated acetonitrile
Protocol: The sample was prepared in an air-saturated acetonitrile solution. Using a Atlas Photonics LUMOS BIO irradiator, the sample was constantly irradiated at 450 nm in time intervals from 0 to 10 min (13.2 J cm^−2). The absorption spectra from 350 to 700 nm was monitored with a SpectraMax M2 Microplate Reader (Molecular Devices) at each time interval. As positive and negative controls, respectively, [Ru(2,2′-bipyridine)3]Cl2 and Protoporphyrin IX were used.

[2] = Photobleaching by NMR; assay type: physicochemical; settings: 450 nm, 10 min, 13.2 J cm^−2, CD3CN
Protocol: The sample was dissolved in air saturated 0.7 mL CD3CN and stored in a NMR tube in the dark. A ^1H-NMR spectrum was measured directly after preparation to ensure the identity of the sample. The sample was then irradiated at 450 nm with an Atlas Photonics LUMOS BIO irradiator (10 min, 13.2 J cm^−2). Following this treatment, a ^1H-NMR spectrum was again measured.

[3] = tested on: mouse colon carcinoma (CT-26) cells
Protocol: (§3) A total of 4 × 10^3 cells were seeded on 96-well plates and allowed to adhere overnight. The cells were treated with increasing concentrations of the sample diluted in cell media achieving a total volume of 200 μL. The cells were incubated with the sample for 8 h and, after this time, the medium refreshed. To study the phototoxic effect of the sample, the cells were exposed to 480 nm (spectral half-width: 20 nm, 10 min, 5.2 mW cm^−2, 3.1 J cm^−2) or 540 nm (spectral half-width: 30 nm, 40 min, 4.0 mW cm^−2, 9.5 J cm^−2) light using an Atlas Photonics LUMOS BIO irradiator. To study the dark cytotoxicity of the sample, the cells were not irradiated and the medium exchanged. The cells were grown for an additional 40 h at 37 °C. After this time, the medium was replaced with fresh medium containing resazurin with a final concentration of 0.2 mg mL^−1. The cells were incubated for 4 h and the amount of the fluorescent product resorufin determined (λex = 540 nm, λem = 590 nm) with a SpectraMax M2 Microplate Reader (Molecular Devices). The obtained data was analyzed with the GraphPad Prism software.

[4] = tested on: human glioblastoma astrocytoma (U373) cells; assay: (Photo-)cytotoxicity on 2D cell monolayers, U373; settings: for PI (480 nm): U373, dark vs 480 nm; for PI (540 nm): U373, dark vs 540 nm; for IC50: 1-3 as chloride salts;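 for all read-outs here: Resazurin-to-resorufin fluorescence viability readout, 8 h compound exposure then medium change, light dose 3.1 J cm^−2 at 480 nm or 9.5 J cm^−2 at 540 nm, analysed 40 h later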
Protocol: as §3

[5] = tested on: mouse colon carcinoma (CT-26) cells; assay: (Photo-)cytotoxicity on 2D cell monolayers, CT-26; settings: for PI (480 nm): CT-26, dark vs 480 nm; for PI (540 nm): CT-26, dark vs 540 nm; for IC50: 1-3 as chloride salts
Protocol: as §3

[6] = tested on: HeLa MCTS; assay: (Photo-)cytotoxicity on 3D MCTS (ATP concentration); assay type: cell-based, human; settings: for IC50: 1-3 as chloride salts
Protocol: The cytotoxicity of the compounds in 3D MCTS was assessed by measurement of the ATP concentration. MCTS were treated with increasing concentrations of the compound (2% DMSO, v%) by replacing 50% of the media with drug supplemented media and incubation for 12 h. After this time, the MCTS were divided in three identical groups. The first group was strictly kept in the dark. The second group was exposed to a 1-Photon irradiation (500 nm, 16.7 min, 10.0 mW cm^−2, and 10 J cm^−2) using a LED light source and the third group was exposed to a 2-Photon irradiation (800 nm, 10 J cm^−2 with a section interval of 5 μm) using a LSM 880 (Carl Zeiss, Germany) laser scanning confocal microscope equipped with a Coherent Chameleon 2-Photon laser. After the irradiation, all groups were incubated additional 48 h. The ATP concertation was measured using a CellTiter-Glo 3D Cell Viability kit (Promega) by measuring the generated chemiluminescence with an infinite M200 PRO (Tecan) plate reader.

[7] = In vivo time-dependent biodistribution (ICP-MS); design: species or system mouse; settings: chloride salt, SW620/AD300 tumor-bearing nude mice
Protocol: (§1) Six weeks old nu/nu female mice were purchased from Charles River. For the tumor xenograft, 6 × 10^6 SW620/AD300 cells were subcutaneously (s.c.) injected with a 150 μL Matrigel and saline (1:1, v/v) suspension into the mice. After a week, the tumor volumes of the mice reached ~80 mm^3. All experiments were conducted in compliance with the ethical regulations for animal testing and received approval of the experimental animal managing committee of Sun Yat Sen University.
Three nude mice were tail-intravenous (i.v.) injected with 2 mg kg^−1 of the sample. One hour later, the mice were sacrificed and the major organs (including the heart, liver, spleen, lung, kidney, brain, intestine, and blood) were separated, weighted and ground. The grinded organ as well as the blood were digested using a 60% HNO3 solution for 3 days, and following this, diluted to a 2% HNO3 solution in water. The Ru content was determined with an ICP-MS apparatus and the results compared with the Ru references.
Six SW620/AD300 nude tumor-bearing nude mice were separated into three groups, and i.v. injected with 2 mg kg^−1 of the sample. 30 min, 1 h, 2 h later, the mice were euthanized and the distribution of the sample determined using the previous described method.

[8] = tested on: doxorubicin-selected P-gp-overexpressing human colon cancer tumor (SW620/AD300); assay: In vivo PDT on tumor-bearing nude mice; design: species or system mouse; settings: chloride salt, 2 mg kg^−1 i.v.
Protocol: as §1
30 SW620/AD300 nude tumor-bearing nude mice were randomly separated into six groups, resulting in five mice for each group. After been anaesthetized, the mice was fixed in a warm three-axes holder. Before irradiation, the tumor site was disinfected with ethanol. The tumor was exposed to 1P or 2P light. Following the irradiation, the operative area was disinfection by iodophor.
Group 1: injected 7 (2 mg kg^−1, 50 μL) intravenously and irradiate under 800 nm laser (50 mW, 1 kHz, pulse width 35 fs, 5 s mm^−1) 1 h after injection; […]
(§2) The mice were anesthetized by injection of a 4% chloral hydrate aqueous solution (0.2 mL, 20 g^−1) before the treatment. The tumor volume and body weight were measured and recorded every 2 days. Tumor volume was calculated by the following formula:6 Volume=Length×Width^2/2.

[9] = In vivo tolerability: body weight, behaviour, H&E histology; design: species or system mouse; settings: 2 mg kg^−1 i.v.
Protocol: as §2
The tumor and all major organs (including the heart, liver, spleen, lung, kidney, brain, intestine, and blood) were collected and a slice of each one was fixated with 4% paraformaldehyde. The obtained slices were stained with hematoxylin and eosin. The histological images were taken with a Carl Zeiss Axio Imager Z2 microscope.

[10] = read-out: IC50 480 nm (10 min, 3.1 J cm-2), U373, 480 nm
[11] = read-out: IC50 dark, U373, dark
[12] = read-out: IC50 540 nm (40 min, 9.5 J cm-2), CT-26, 540 nm
[13] = read-out: IC50 dark, CT-26, dark

## CN(C)c1ccc(/C=C/c2ccnc(-c3cc(/C=C/c4ccc(N(C)C)cc4)ccn3)c2)cc1.CN(C)c1ccc(/C=C/c2ccnc(-c3cc(/C=C/c4ccc(N(C)C)cc4)ccn3)c2)cc1.CN(C)c1ccc(/C=C/c2ccnc(-c3cc(/C=C/c4ccc(N(C)C)cc4)ccn3)c2)cc1.F[P-](F)(F)(F)(F)F.F[P-](F)(F)(F)(F)F.[Ru+2] [compound 2, [Ru((E,E′)-4,4′-Bis[p-(N,N-dimethylamino)styryl]-2,2′-bipyridine)3][PF6]2]
[1]
  photostability (change of absorption spectra upon irradiation): small changes in the absorption spectra
[2]
  effect of irradiation on the molecular structure (NMR): decomposition of the compound
[3]
  IC50: 42.6 µM
[4]
  PI (480 nm): > 2.0
  PI (540 nm): > 1.6
[4]; [10]
  IC50: 49.1 µM
[4]; [11]
  IC50: > 100 µM
[5]
  PI (480 nm): > 2.3
  PI (540 nm): > 1.6
[5]; [12]
  IC50: 62.5 µM
[5]; [13]
  IC50: > 100 µM

## COc1ccc(/C=C/c2ccnc(-c3cc(/C=C/c4ccc(OC)cc4)ccn3)c2)cc1.F[P-](F)(F)(F)(F)F.F[P-](F)(F)(F)(F)F.[Ru+2].c1ccc(-c2ccccn2)nc1.c1ccc(-c2ccccn2)nc1 [compound 7, [Ru(2,2′-bipyridine)2((E,E′)-4,4′-Bis[p-methoxystyryl]-2,2′-bipyridine)][PF6]2]
[1]
  photostability (change of absorption spectra upon irradiation): no significant differences in the absorption spectra
[6]; 1P 500 nm, read-out: IC50 1P irradiation (500 nm, 10 J cm-2)
  IC50: > 6.8 µM and 6.8 µM
[6]; 2P 800 nm, section interval 5 μm, read-out: IC50 2P irradiation (800 nm, 10 J cm-2)
  IC50: > 1.4 µM and 1.4 µM
[6]; dark vs 500 nm
  PI (1P irradiation): > 44 and > 44.1
[6]; dark vs 800 nm
  PI (2P irradiation): > 250 and > 214.3
[6]; dark, read-out: IC50 dark
  IC50: > 300 µM
[7]; 2 mg kg^−1 i.v. tail injection
  time until absorbed from the blood stream: ≤ 1 h
[7]; 2 mg kg^−1 i.v.
  organ accumulation (Ru content): high accumulation in the intestine and some accumulation in the tumor
[8]; 1P (500 nm, 36 J cm^−2) or 2P (800 nm, 50 mW) irradiation 1 h after injection, 80 mm^3 tumor
  tumor growth after one PDT treatment: drastically shrank until they were nearly eradicated
[8]; dark
  tumor growth without irradiation: kept growing
[9]; exposed to light
  histology of all other organs (H&E): did not show any significant effect
  histology of tumor tissue (H&E): pathological alterations caused by the PDT treatment
[9]; nude mice
  behaviour of treated mice: behaved normally, without signs of pain, stress or discomfort
  body weight of treated mice: did not lose or gain weight
[3]
  IC50: 0.7 ± 0.4 µM
[4]
  PI (480 nm): > 9.5
  PI (540 nm): > 7.4
[4]; [10]
  IC50: 10.5 µM
[4]; [11]
  IC50: > 100 µM
[5]
  PI (480 nm): > 143 and > 142.9
  PI (540 nm): > 111.1
[5]; [12]
  IC50: 0.9 ± 0.3 µM
[5]; [13]
  IC50: > 100 µM
